# Data as given in PubChem BioAssay AID463199 (Broad Institute, 2010).
# The source made the active and inactive calls.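 How the source made its calls: active means AC50, the dose giving half-maximal effect, exceeds a fixed cutoff for a compound that rescues yeast growth under heat; inactive means the rest, inconclusive results apart.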
# Test system: S. cerevisiae Burl-1 ts mutant growth, BacTiter-Glo, 38.5C 24 h
# Assay: growth induction of Burl-1 ts yeast mutant, dose response, counter-screen for SUMOylation pathway inhibitor project, whole organism, S. cerevisiae, luminescence (AID 463199)
row,Structure (SMILES),AC50
1,CCCCCCCCCCOC(=O)Cn1c(COc2ccccc2OC)[n+](C)c2ccccc21,> 42 µM (inactive)
2,COC(=O)N/N=C/c1ccc(-c2ccc(Cl)cc2Cl)o1,> 42 µM (inactive)
3,c1ccc2cc(Cn3ccnc3)ccc2c1,> 42 µM (inactive)
4,COc1ccc(C(=O)O)cc1S(=O)(=O)NCCN(C)C,> 42 µM (inactive)
5,CSc1ccc(CCNC(=O)C2CCCN(S(=O)(=O)N3CCOCC3)C2)cc1 (stereo unspecified),> 42 µM (inactive)
6,CCCOC(=O)c1c(NC(=O)/C=C/c2cnn(C)c2C)sc(C(=O)OC)c1C,> 42 µM (inactive)
7,COC(=O)c1ccncc1C(=O)Nc1ccc(Oc2ncc(C(F)(F)F)cc2Cl)cc1,> 42 µM (inactive)
8,S=C(c1ccc(N2CCOCC2)cc1)N1CCCCC1,> 42 µM (inactive)
9,Oc1c(Br)cc(Br)cc1C=Nc1ccc2[nH]ncc2c1,> 42 µM (inactive)
10,O=C(CCSc1ccccc1)NNC(=O)c1ccccc1F,> 42 µM (inactive)
11,CN(C)CCN(Cc1ccc(Cl)cc1)c1ccccn1,36.3 µM
12,Cc1ccc(-c2csc(C3=C(O)CN(NC(=O)c4ccco4)C3=N)n2)cc1,> 42 µM (inactive)
13,Cc1ccccc1Cn1cc(NC(=O)c2cc3nc(-c4ccco4)cc(C(F)(F)F)n3n2)cn1,> 42 µM (inactive)
14,COc1ccccc1NS(=O)(=O)c1cc(Cl)ccc1OC,> 42 µM (inactive)
15,COC(=O)[C@@H]1[C@@H](C(=O)OC)C2(c3ccccc3-c3ccccc32)N(c2ccc(Cl)cc2)N1C#N,> 42 µM (inactive)
16,O=C(O)c1c(C(=O)O)c(-c2ccc(F)cc2)n2c1CCC2,> 42 µM (inactive)
17,Cc1nnc(N=c2ssnc2Cl)o1,> 42 µM (inactive)
18,O=C(Nc1cccc(C(=O)Nc2ccc(F)cc2F)c1)c1ccccc1,> 42 µM (inactive)
19,[N-]=[N+]=NCCN1CCC(O)CCC1=O (stereo unspecified),> 42 µM (inactive)
20,Cc1nnc(SCC(=O)NCc2ccccc2Cl)[nH]c1=O,> 42 µM (inactive)
21,Cc1cccc(OCc2nnc(SCC(=O)O)n2-c2ccccc2)c1,> 42 µM (inactive)
22,CCn1nc(CC(=O)Nc2ccc(-n3cnnn3)c(C)c2)c2ccccc2c1=O,> 42 µM (inactive)
23,Cc1c(C(=O)NC(C)C)oc2c1-c1[nH]ncc1CC2,> 42 µM (inactive)
24,C/C(=N\N=C(/N)SC1CC(=O)N(c2cccc(Cl)c2)C1=O)c1cccs1 (stereo unspecified),> 42 µM (inactive)
25,Cc1ccc(NC(=O)COc2ccccc2C(=O)NCCN(C)C)cc1,> 42 µM (inactive)
26,COc1ccc2c(c1)OC[C@H]1[C@H]2N2C(=O)c3cc(OC)c(OC)cc3NC(=O)[C@@]2(C)[C@H]1c1ccccc1,> 42 µM (inactive)

row,Structure (SMILES),AC50
1,Cc1cc(Nc2nc3c(c(=O)n(C)c(=O)n3C)n2C)n(-c2ccc(Cl)cc2)n1,> 42 µM (inactive)
2,CCC(=O)N1c2ccc(S(=O)(=O)N3CCN(c4ccc([N+](=O)[O-])cc4)CC3)cc2CC1C (stereo unspecified),> 42 µM (inactive)
3,CC(NC(=O)C1CCCN(S(=O)(=O)N2CCOCC2)C1)c1ccccc1 (stereo unspecified),> 42 µM (inactive)
4,COc1cc(/C=N/NC(=O)c2ccncc2)ccc1OC(=O)c1ccco1,> 42 µM (inactive)
5,Cn1c(C(=O)NCCc2ccsc2)cc2c(=O)n(C)c3ccccc3c21,> 42 µM (inactive)
6,Cc1nc(N)c(Cc2ccccc2F)c(N)n1,> 42 µM (inactive)
7,CCN(CC1COc2ccccc2O1)C(=S)NCCCN(C)C (stereo unspecified),> 42 µM (inactive)
8,Cc1cc(C)c(S(=O)(=O)NCC(c2cccnc2)N2CCN(Cc3ccccc3)CC2)c(C)c1 (stereo unspecified),> 42 µM (inactive)
9,COc1ccc(N2C(=O)CC(NCc3cccs3)C2=O)cc1 (stereo unspecified),> 42 µM (inactive)
10,N#Cc1cccc(NC(=O)CSc2n[nH]c(=O)[nH]c2=O)c1,> 42 µM (inactive)
11,COCC(=O)n1nc(NCc2ccc(OC)cc2)nc1NCc1ccc(OC)cc1,> 42 µM (inactive)
12,CC(C)(C)c1ccc(C(=O)NCCC(=O)N2CCN(c3ncccn3)CC2)cc1,> 42 µM (inactive)
13,COc1ccccc1-c1nc2ccccc2nc1-c1ccccc1OC,> 42 µM (inactive)
14,CC(C)CCNC(=O)Cn1c(=O)oc2cc(S(=O)(=O)N3CC(C)CC(C)C3)ccc21 (stereo unspecified),> 42 µM (inactive)
15,O=S(=O)(O)c1ccc(N=NNc2ccc(Br)cc2)cc1,> 42 µM (inactive)
16,O=c1cnc2cc([N+](=O)[O-])ccc2[nH]1,> 42 µM (inactive)
17,O=C(/C=C/c1ccc(Cl)cc1)NCc1ccncc1,42 µM
18,Cc1cc(Br)ccc1NC(=O)c1cnc(N2CCN(c3ccccn3)CC2)c2ccccc12,> 42 µM (inactive)
19,COc1cc2c(cc1OC)C(c1ccccc1[N+](=O)[O-])N(C(C)=O)CC2 (stereo unspecified),> 42 µM (inactive)
20,COc1cc(/C=C2\NC(=S)N(C)C2=O)ccc1OCc1cccc(F)c1,> 42 µM (inactive)
21,COc1cc(NC(=O)c2ccccc2F)c(OC)cc1NC(=O)CN1CCCCC1,> 42 µM (inactive)
22,Cn1c(NCc2ccco2)nc2c1c(=O)n(Cc1ccc(Cl)cc1)c(=O)n2C,> 42 µM (inactive)
23,O=C(NCc1cccc(F)c1F)C1CCC(=O)N(C2CC2)C1 (stereo unspecified),> 42 µM (inactive)
24,COc1ccc(CN(C)S(=O)(=O)c2nnc(NC(=O)c3ccc(C)cc3)s2)cc1OC,> 42 µM (inactive)
25,O=C(CC1(CC2=NS(=O)(=O)c3ccccc3N2)CCCC1)NCCc1ccccc1,> 42 µM (inactive)
26,Cc1ccc(S(=O)(=O)Oc2ccc(/C=C3\N=C(c4cccc(C)c4)OC3=O)cc2)cc1,> 42 µM (inactive)

row,Structure (SMILES),AC50
1,COC(=O)CCCC(=O)NCC1(N(C)Cc2ccccc2)Cc2ccccc2C1,> 42 µM (inactive)
2,CC1(C)CNc2cc([N+](=O)[O-])ccc2S1,> 42 µM (inactive)
3,Cc1cc(C)n(CCOC(=O)C2C(C=C(Cl)Cl)C2(C)C)n1 (stereo unspecified),> 42 µM (inactive)
4,COC(=O)c1ccc(N2C(=O)CC(NCc3ccccc3)C2=O)cc1 (stereo unspecified),> 42 µM (inactive)
5,O=C1CCC(=O)N1CCOP1(=O)COc2ccccc2OC1,> 42 µM (inactive)
6,CN(C)C(=O)CCN1CCOCC1,> 42 µM (inactive)
7,Cc1cc(C)cc(-n2ncc3c2CCCC3NC(=O)c2cc(C)[nH]n2)c1 (stereo unspecified),> 42 µM (inactive)
8,Cc1ccc(S(=O)(=O)N2CCCC2C(=O)NCCc2ccccc2)cc1 (stereo unspecified),> 42 µM (inactive)
9,NC(=O)NC(=O)COC(=O)/C=C/c1cccs1,> 42 µM (inactive)
10,Nc1nnc(CC(=O)N2CCCCC2)s1,> 42 µM (inactive)
11,COc1cccc(/C=N/n2cnc3ccccc32)c1OC,> 42 µM (inactive)
12,CCCCC(=O)Nc1cc(OC)c(NC(=O)C2CCCCC2)cc1OC,> 42 µM (inactive)
13,COCc1[nH][nH]c(=O)c1C=Nc1ccc(OC(F)(F)F)cc1,> 42 µM (inactive)
14,C=CC[N+]1(CC#Cc2ccccc2)CCCC1,> 42 µM (inactive)
15,COc1ccc(Cl)cc1C(=O)NCCc1ccc(S(=O)(=O)NC(=O)NC2CCCCC2)cc1,> 42 µM (inactive)
16,CCNc1nc(NCC)nc(SCCOC(=O)Nc2ccccc2)n1,> 42 µM (inactive)
17,O=C1c2ccccc2S(=O)(=O)N1Cc1cc(=O)n2ccsc2n1,> 42 µM (inactive)
18,CC1(C)CC(=O)c2cnc(NC(=O)CSc3nc4ccccc4o3)nc2C1,> 42 µM (inactive)
19,O=C(COC(=O)C1COc2ccccc2O1)NC1CCS(=O)(=O)C1 (stereo unspecified),> 42 µM (inactive)
20,COC(=O)c1c(C)cc(O)c(C=O)c1O,> 42 µM (inactive)
21,CCOC(=O)c1c(/N=C/C2C(=O)CCCC2=O)sc2c1CCCC2,> 42 µM (inactive)
22,O=[N+]([O-])c1ccc(N/N=C/c2cccc(O)c2)cc1,> 42 µM (inactive)
23,O=C(Nc1ccc(Cl)cc1Cl)c1cccc(N2C(=O)C=CC2=O)c1,> 42 µM (inactive)
24,Cc1ccnc(NC(=O)CNC(=O)c2ccc(Br)o2)c1,> 42 µM (inactive)
25,Cn1c(=O)[nH]c(=O)c2c1nc(NCCN)n2CCOc1ccccc1,> 42 µM (inactive)
26,C=CC(=O)NC1CC2CCC1(C)C2(C)C (stereo unspecified),> 42 µM (inactive)

row,Structure (SMILES),AC50
1,CNc1csc(C)c(C)c1=O,> 42 µM (inactive)
2,O=C(Nc1ncccn1)c1ccc(C(F)(F)F)cc1,> 42 µM (inactive)
3,NNc1nc2sc3c(c2c(=O)n1-c1ccccc1)CCCC3,> 42 µM (inactive)
4,O=C(Cc1cccs1)Nc1nnc(-c2ccncc2)s1,> 42 µM (inactive)
5,CCc1ccc(NC(=S)N(Cc2cccc(Br)c2)CC2CCC(C(=O)O)CC2)cc1 (stereo unspecified),> 42 µM (inactive)
6,O=C(/C=C/c1ccc(F)cc1)NCC1(c2ccccc2)CCOCC1,> 42 µM (inactive)
7,N#Cc1ccc2[nH]c(CO)c(-c3ccccc3)c2c1,> 42 µM (inactive)
8,Cc1ccccc1C(=O)NNC(=O)/C=C\C(=O)O,> 42 µM (inactive)
9,Cc1nn(Cc2ccc(C(=O)Nc3ccccc3C(F)(F)F)o2)c(C)c1Br,> 42 µM (inactive)
10,COc1ccccc1CNc1nc(SC)ncc1CO,> 42 µM (inactive)
11,Cc1ccc(S(=O)(=O)N2[C@@H](c3ccc(Br)cc3)C(C(=O)O)=C[C@H]2CC2CCCC2)cc1,> 42 µM (inactive)
12,C=CSc1sc(Cl)c(N(C)C)c1[N+](=O)[O-],> 42 µM (inactive)
13,O=C(Nc1ccccn1)c1ccc(CN(c2ccccc2)S(=O)(=O)c2ccccc2)cc1,> 42 µM (inactive)
14,CC(C)(C)CC(=O)Nc1cc(S(=O)(=O)N2CCOCC2)ccc1N1CCCC1,> 42 µM (inactive)
15,CN1C(=O)c2ccc(NC(=S)NC(=O)C(C)(C)C)cc2C1=O,> 42 µM (inactive)
16,Cc1cc(C)c2c(Cn3ccnc3)cc(=O)oc2c1,> 42 µM (inactive)
17,CCCCC(=O)NC(=S)Nc1cccc(C(=O)O)c1,> 42 µM (inactive)
18,Cc1ccc(NS(=O)(=O)c2c(C)[nH]c(C)c2C(=O)N2CCCCC2)c(Cl)c1,> 42 µM (inactive)
19,Cc1ccccc1NC(=O)c1ccccc1NC(=O)c1ccco1,> 42 µM (inactive)
20,Cc1ccc(-n2nc3c(=O)n(CCCC(=O)NCc4cccc(F)c4)nc(C)c3c2C)cc1,> 42 µM (inactive)
21,CN(C)C(=O)c1c2c(nc3ccccc13)CCCC2,> 42 µM (inactive)
22,N=c1c2c(n(Cc3ccc(Cl)c(Cl)c3)c3c1CCC3)CCCC2,> 42 µM (inactive)
23,Cc1cc(C)nc(-n2nc(C)cc2NC(=O)CNCc2ccccc2)n1,> 42 µM (inactive)
